# What was measured:
# MCF-7 cells [1] = assay: Intracellular ROS (H2DCFDA), MCF-7 cells; format: cell-based, human; conditions: for intracellular ROS generation (in words): D-pen 200 μM, cupric sulfate 10 μM, catalase 500 U/mL with D-pen plus cupric sulfate
# Experimental: (§1) FIGS. 4A-B: D-pen in the presence of cupric sulfate generates intracellular ROS in breast cancer and leukemia cells. […] Cells were incubated without (positive control) or with H2O2, H2O2 plus catalase, cupric sulfate, D-pen, D-pen plus cupric sulfate, D-pen plus cupric sulfate plus catalase in media. Unloaded cells were used as negative control. The cell associated fluorescence was measured at 30, 60, 90 min at excitation and emission of 485±20 nm and 530±25 nm, respectively. Data are reported as the DCF fluorescence (fold increase versus control).
# (§2) 2′-7′-dichlorodihydrofluorescein diacetate (H2DCFDA) was used as an indicator of intracellular ROS generation. H2DCFDA is a cell permeable probe, it enters the cell and is deacetylated to a non-fluorescent product, 2′-7′-dichlorodihydrofluorescein (H2DCF) by cellular esterases and is oxidized by ROS to a fluorescent product, 2′-7′-dichlorofluorescein (DCF). MCF-7 and HL-60 cells were loaded with H2DCFDA and were seeded in a 96 well plate at a concentration of 3×10^4 cells/well. Briefly, cells were incubated with PBS buffer containing 5 μM H2DCFDA (dissolved in DMSO) for 30 min at 37° C. H2DCFDA was then removed and cells were washed twice with fresh PBS to remove excess H2DCFDA. Cells were then incubated with either drug in media or media alone (positive control). Non-H2DCFDA loaded cells were used as negative control. The fluorescence of control and sample wells was recorded at excitation 485±20 nm, emission 530±25 nm with Biotek FL600 (Biotek Instruments, Winooski, Vt.) at 30, 60, and 90 min. Then data is reported as DCF fluorescence (fold increase vs. control) corresponding to the increase of fluorescence associated with the sample cells compared to that of untreated cells.
# MDA-MB-468 cells = assay: Cytotoxicity of PGA-D-pen conjugate (MTT), MDA-MB-468; format: cell-based; conditions: MDA-MB-468, 48 h
# Experimental: (§4) Cell Culture and Cytotoxicity: The P388 cells and HL-60 cells were plated at 1×10^4 and 4×10^4 cells respectively in 200 μl of medium per well in round bottom 96-well microwell plates. The MDA-MB-468 cells were plated at 1×10^4 cells/well in 96-well flat bottom microwell plates and allowed to attach overnight. Equal volumes of PGA-D-pen conjugate, PGA, D-pen, PGA+D-pen or PBS were added and the plates were incubated for 48 h (37° C., 5% CO2). 20 μl of MTT reagent (5 mg/ml in PBS; Sigma) was added to each well and re-incubated for 3-4 h to allow formation of formazan crystals. The round bottom plates were centrifuged at 200 g for 5 min. Subsequently, the supernatant was aspirated and 200 μl of DMSO were added to each well and the plate was incubated at room temperature for 1 h to lyse the cells and solubilize formazan. The optical density of each well at 570 nm was measured on a Synergy™ 2 Multi-Detection Microplate Reader (Biotek, Winooski, Vt.). Percent viability in treated wells was calculated as the percentage of optical density in control wells.
# HL-60 cells [2] = assay: Intracellular ROS (carboxy-H2DCFDA), HL-60 cells; format: cell-based, human; conditions: naive HL-60, carboxy-H2DCFDA 25 μM, 8 h after treatment
# P388 cells = assay: Cytotoxicity of PGA-D-pen conjugate (MTT), P388; format: cell-based; conditions: P388, 48 h
# Experimental: as §4
# [3] = cited from earlier work
# [4] = cited from earlier work; remark: listed apart in the source
# HL-60 cells [5] = assay: Cytotoxicity of PGA-D-pen conjugate (MTT), HL-60; format: cell-based, human; conditions: HL-60, 48 h
# Experimental: as §4
# HL-60 cells [6] = assay: Intracellular ROS (H2DCFDA), HL-60 cells; format: cell-based, human; conditions: D-pen 200 μM, cupric sulfate 10 μM, catalase 500 U/mL with D-pen plus cupric sulfate
# Experimental: as §1, §2
# HL-60 cells [7] = format: cell-based, human
# Experimental: FIG. 19: Cellular uptake of D-pen. D-pen (100 μM) was added to HL-60 (1×10^6) cells in PBS (pH 7.4) in a 24-well plate at 37° C. in 5% CO2 incubator. Cells were separated by centrifugation and the supernatant was analyzed by HPLC assay for D-pen concentration. Data represents mean±SD (n=4).
# Quantitative cell uptake of free D-pen. The quantitative cell uptake of free D-pen was investigated in HL-60 cells. Briefly, D-pen (100 μM) was incubated with HL-60 (1×10^6) cells in PBS, pH 7.4 at 37° C. in a 5% CO2 incubator. Cells were incubated for 1-4 h. At pre-determined time the cells were separated by centrifugation and the supernatant was analyzed for the remaining concentration of D-pen as present as either free D-pen or D-pen disulfide using the HPLC assay previously described (Gupte and Mumper, 2007).
# HL-60/ADR cells = assay: MTT cell viability assay, HL-60/ADR leukemia cells; format: cell-based, human
# Experimental: (§3) FIGS. 1A-B: […] Cell viability was determined with the MTT assay. […] Data are represented as the mean±standard error (SE). […] San Diego, Calif.).
# MCF-7 cells [8] = assay: cells; conditions: Homo sapiens, MCF7, 48 h
# Experimental: (§5) Cell viability was determined with MTT assay. Absorbance was measured at 595 nm and adjusted to the absorbance of untreated cells. Data represent mean±SE; n=12 (two independent experiments performed in n=6). Inhibitory concentration (IC50) was reported as mean±S.E.
# (§6) Cell viability was measured using the 3-(4,5-dimethyl-2-yl)-2,5-diphenylteraolium bromide (MTT) assay. The adherent breast cancer cells (MCF-7 and BT474) were seeded at an initial concentration of 3×10^4 cells/well 24 h prior to the commencement of the experiments to allow them to attach, while the suspension leukemia cells, HL-60, HL-60-/VCR and HL-60/ADR were seeded at 3×10^4 cells/well on the same day of the experiment in a 96 well plate. […] The MTT assay was performed at 48 h and absorbance was measured with the microplate reader (Biotek ELx 800, Biotek Instruments, Winooski, Vt.) at a wavelength of 595 nm. Data is reported as cell viability (% control) and corresponds to the percent viable cells compared to untreated cells.
# (§7) Data are represented as the mean±standard error (SE). Each experimental group consisted of n=6 and experiments were repeated two times. […] The IC50 was calculated with GraphPad Prism® non-linear regression program.
# HL-60 cells [9] = assay: cells; conditions: Homo sapiens, HL-60, 48 h
# Experimental: Cell viability was determined with the MTT assay. Absorbance was measured at 595 nm and adjusted to the absorbance of untreated cells. Data represent mean±SE; n=12 (two independent experiments performed in n=6). Inhibitory concentrations (IC50) were reported as the mean±S.E in the figure legend.
# as §6, §7
# MCF-7 cells [10] = tested on: MCF-7 cells
# Experimental: as §5, §6, §7
# BT474 cells = assay: MTT cell viability assay, BT474 breast cancer cells; format: cell-based, human
# Experimental: FIGS. 2A-B: […] Cell viability was determined with MTT assay. […] Inhibitory concentration (IC50) was reported as mean±S.E. […] Data are represented as the mean±standard error (SE). […] San Diego, Calif.).
# HL-60/VCR cells = assay: MTT cell viability assay, HL-60/VCR leukemia cells; format: cell-based, human
# Experimental: as §3
# HL-60 cells [11] = assay: In-vitro cytotoxicity of gelatin-D-pen conjugate (MTT); conditions: cupric sulfate up to 100 μM, p>0.05 versus control
# Experimental: Cells (2×10^4) were incubated with gelatin alone (1 mg/mL), D-pen alone (100 μM), gelatin (1 mg/mL) plus D-pen (100 μM), and gelatin-D-pen conjugate (1 mg/mL) After every 2 day interval media was replaced with fresh media. MTT assay was performed on day 2, 4, 6, 8 and 10. Data represents mean±SD (n=6). **p<0.01 and ***p<0.001 compared to gelatin plus D-pen.
# In-vitro cytotoxicity of gelatin-D-pen conjugate. The HL-60 cells were seeded at a density of 2×10^4 cells/mL in a 96 well plate. […] The above experiments were repeated with the copper pre-treated cells. Cell viability was determined at 24 and 72 h with MTT assay.
# HL-60 cells [12] = conditions: cupric sulfate alone 0.1-50 μM, data not shown
# [13] = cupric sulfate alone 0.1-50 μM, data not shown
compound,measurement,setting,value
"CC(C)(S)[C@@H](N)C(=O)O [D-pen, D-penicillamine]",intracellular ROS generation (in words),MCF-7 cells [1],failed to produce any ROS
same,reduction in cell viability (in words),MDA-MB-468 cells,did not cause significant reduction in cell viability
same,intracellular ROS levels (in words),HL-60 cells [2],no increase in intracellular ROS
same,reduction in cell viability (in words),P388 cells,did not cause significant reduction in cell viability
same,Log P,[3],−0.39
same,"half-life, biphasic elimination from the blood, first value",[4],6 to 7 min
same,"half-life, biphasic elimination from the blood, second value",[4],52 to 55 min
same,reduction in cell viability (in words),HL-60 cells [5],did not cause significant reduction in cell viability
same,intracellular ROS generation (in words),HL-60 cells [6],failed to produce any ROS
same,cell uptake of free D-pen (in words),HL-60 cells [7],not to enter leukemia cells
"OO [H2O2, hydrogen peroxide]",IC50,"HL-60/ADR cells; Homo sapiens, HL60/ADR, 48 h, MTT, D-pen (1-400 μM) with cupric sulfate 10 μM",162.5 ± 1.1 µM
same,ROS generated compared to D-pen plus cupric sulfate,MCF-7 cells [1]; H2O2 alone 100 μM,5 fold
same,IC50,MCF-7 cells [8],116 ± 1.6 µM
same,IC50,HL-60 cells [9],20 ± 1 µM
same,fold difference between IC50 of D-pen plus cupric sulfate and IC50 of H2O2 alone,MCF-7 cells [10],approximately 2 fold
same,fold difference between IC50 of D-pen plus cupric sulfate and IC50 of H2O2 alone,BT474 cells; BT474,~3 fold
same,IC50,"BT474 cells; Homo sapiens, BT-474, BT474, 48 h, MTT",96.1 ± 1.1 µM
same,fold difference between IC50 of D-pen plus cupric sulfate and IC50 of H2O2 alone,HL-60/VCR cells,~4 fold
same,IC50,"HL-60/VCR cells; Homo sapiens, HL60/VCR, 48 h, MTT, D-pen with cupric sulfate 10 μM",31.5 ± 1.1 µM
O=S(=O)([O-])[O-].[Cu+2] [cupric sulfate],loss in cell viability,HL-60/ADR cells; [13],did not result in any appreciable loss in cell viability
same,intracellular ROS generation (in words),MCF-7 cells [1],failed to produce any ROS
same,effect of copper pre-treatment on cell number or viability,HL-60 cells [11],did not result in statistically significant decrease in cell number or viability
same,intracellular ROS generation (in words),HL-60 cells [6],failed to produce any ROS
same,loss in cell viability,HL-60 cells [12],did not result in any appreciable loss in cell viability
same,loss in cell viability,HL-60/VCR cells; [13],did not result in any appreciable loss in cell viability
CCCCCCOC(=O)[C@H](N)C(C)(C)S [hexyl-D-pen-ester],Log P,[3],1.61
catalase,intracellular ROS generation (in words),MCF-7 cells [1],completely inhibited ROS generation
same,intracellular ROS generation (in words),HL-60 cells [6],completely inhibited ROS generation

# From patent publication US20090092664A1, “POLYMER-METAL CHELATOR CONJUGATES AND USES THEREOF” (UNIVERSITY OF KENTUCKY RESEARCH FOUNDATION, priority 2007, published 2009)
